Laboratory results as given in patent US20230295162A1 (EÖTVÖS LORÁND TUDOMÁNYEGYETEM, priority 2020, published 2023).
Like-named read-outs stand apart in the source and are kept apart here.

How the values were obtained:
[1] = tested on: COLO-205 (human colorectal adenocarcinoma) cells; test: Colorimetric alamarBlue assay, long treatment; conditions: COLO 205, 72 h, read-out: cytotoxicity expressed in IC50, COLO-205
[2] = tested on: A2058 (human metastatic melanoma) cells; test: Colorimetric alamarBlue assay, long treatment; conditions: read-out: cytotoxicity expressed in IC50, A-2058
[3] = tested on: PANC-1 (human pancreatic carcinoma) cells; test: Impedance-based viability assay (xCELLigence SP), long treatment; assay type: cell-based; conditions: 72 h, read-out: cytotoxicity expressed in IC50, PANC-1
Source text: (Gibco®/Invitrogen Corporation, New York, NY, USA).
Data obtained from each experiment represent mathematical averages.

[4] = tested on: H2228 lung cancer cell line; test: High-throughput screening, CellTiter-Glo cell viability assay at 100 nM; assay type: cell-based, human; conditions: compounds at 100 nM, 72 h, read-out: cytotoxicity expressed in IC50, H2228 (results of High throughput screening)
Protocol: (§1) EBC-1 (obtained from JRCB, https://cellbank.nibiohn.go.jp/english/) and H2228 (obtained from ATCC https://www.lgcstandards-atcc.org/) cell lines were maintained according to the instructions provided by JRCB and ATCC in a 5% CO2 humidified incubator maintained at 37° C. temperature. Effect of compounds on cell viability was measured via CellTiter-Glo® luminescent cell viability assay (Promega, Madison, WI, USA). Cells were plated at 1000 cells/well onto a flat-bottomed, white 96 well plate (BRANDplates, cat. no.: 781965). After 24 h, cells were treated for 72 h with the compounds at 100 nM concentration. After the treatment, medium was removed and CellTiter-Glo® reagent was added. Untreated cells were used as control. The luminescence signal was recorded using a microplate reader (BioTek Synergy 2 Multi-Mode Reader, BioTek, Winooski, VT, USA). Cell viability data (% of untreated control cells) was evaluated with Microsoft Excel.

[5] = tested on: EBC-1 lung cancer cell line; test: as above; assay type: cell-based, human; conditions: compounds at 100 nM, 72 h, read-out: cytotoxicity expressed in IC50, EBC-1 (results of High throughput screening)
Protocol: as §1

Row | Compound | IC50 [1] [µM] | IC50 ([2]; Homo sapiens, A2058, 72 h) [µM] | IC50 [3] [µM] | IC50 ([4]; Homo sapiens, NCI-H2228, HTS) [µM] | IC50 ([5]; Homo sapiens, EBC-1, HTS) [µM] | IC50 ([2]; alamarBlue, 72 h) [µM] | IC50 ([4]; HTS) [µM] | IC50 ([5]; HTS) [µM]
1 | [N-]=[N+]=Nc1ccc(CN2C(=O)C3=C(CCN(Cc4ccccc4)C3)N3CCN=C23)cc1 [I/104] | 0.25 | 2.5 | 0.5 | – | – | – | – | –
2 | Cc1ccccc1CN1C(=O)C2=C(CCN(Cc3cccc(F)c3)C2)N2CCN=C12 [I/53] | 2 | – | 2 | > 0.1 | > 0.1 | – | – | –
3 | Cc1ccccc1CN1C(=O)C2=C(CCN(Cc3ccc(F)c(F)c3F)C2)N2CCN=C12 [I/10] | > 10 | > 10 | > 10 | – | – | – | – | –
4 | Cc1ccccc1CN1C(=O)C2=C(CCN(Cc3cccc(N=[N+]=[N-])c3)C2)N2CCN=C12 [I/103] | – | 25 | 0.27 | > 0.1 | > 0.1 | – | – | –
5 | O=C1C2=C(CCN(Cc3ccccc3)C2)N2CCN=C2N1Cc1ccccc1F [I/2, reference compound] | 9.97 | 2.95 | 4.18 | > 0.1 | > 0.1 | – | – | –
6 | Nc1ccc(CN2C(=O)C3=C(CCN(Cc4cccc(F)c4)C3)N3CCN=C23)cc1 [I/84] | – | – | 23 | > 0.1 | > 0.1 | – | – | –
7 | O=C1C2=C(CCN(Cc3ccccc3)C2)N2CCN=C2N1Cc1ccccc1I [I/11] | > 10 | > 10 | > 10 | > 0.1 | > 0.1 | – | – | –
8 | NCc1cccc(CN2C(=O)C3=C(CCN(Cc4ccc(C(F)(F)F)c(F)c4)C3)N3CCN=C23)c1 [I/73] | > 10 | > 10 | > 10 | – | – | – | – | –
9 | Nc1ccc(CN2CCC3=C(C2)C(=O)N(Cc2ccc(F)cc2)C2=NCCN23)cc1 [I/86] | – | – | 25 | > 0.1 | > 0.1 | – | – | –
10 | Cc1ccccc1CN1C(=O)C2=C(CCN(Cc3ccc(C(F)(F)F)c(F)c3)C2)N2CCN=C12 [I/43] | > 10 | > 10 | > 10 | > 0.1 | > 0.1 | – | – | –
11 | NCc1cccc(CN2CCC3=C(C2)C(=O)N(Cc2ccc(I)cc2)C2=NCCN23)c1 [I/59] | – | – | 0.66 | > 0.1 | > 0.1 | – | – | –
12 | [N-]=[N+]=Nc1cccc(CN2CCC3=C(C2)C(=O)N(Cc2ccc(I)cc2)C2=NCCN23)c1 [I/113] | – | 0.25 | 0.25 | < 0.1 | < 0.1 | – | – | –
13 | O=C1C2=C(CCN(Cc3ccccc3F)C2)N2CCN=C2N1Cc1ccc(I)cc1 [I/54] | 2 | – | 1.8 | – | – | – | – | –
14 | O=C1C2=C(CCN(Cc3ccc(F)cc3)C2)N2CCN=C2N1Cc1ccc(I)cc1 [I/55] | 1 | – | 0.76 | > 0.1 | > 0.1 | – | – | –
15 | Cc1ccccc1CN1C(=O)C2=C(CCN(CCc3cccc(F)c3)C2)N2CCN=C12 [I/45] | > 10 | > 10 | > 10 | – | – | – | – | –
16 | O=C1C2=C(CCN(Cc3ccccc3)C2)N2CCN=C2N1CCc1cccc(F)c1 [I/44] | > 10 | > 10 | > 10 | – | – | – | – | –
17 | NCc1cccc(CN2C(=O)C3=C(CCN(Cc4ccc(C(F)(F)F)cc4)C3)N3CCN=C23)c1 [I/68] | > 10 | > 10 | > 10 | > 0.1 | > 0.1 | – | – | –
18 | [N-]=[N+]=Nc1cccc(CN2CCC3=C(C2)C(=O)N(Cc2ccc(C(F)(F)F)c(F)c2)C2=NCCN23)c1 [I/112] | – | 25 | 0.1 | < 0.1 | < 0.1 | – | – | –
19 | Nc1cccc(CN2C(=O)C3=C(CCN(Cc4ccccc4)C3)N3CCN=C23)c1 [I/75] | – | 25 | 6.1 | > 0.1 | > 0.1 | – | – | –
20 | Nc1ccc(CN2CCC3=C(C2)C(=O)N(Cc2ccc(I)cc2)C2=NCCN23)cc1 [I/87] | – | – | 16 | > 0.1 | > 0.1 | – | – | –
21 | O=C1C2=C(CCN(Cc3ccccc3)C2)N2CCN=C2N1Cc1ccc(F)c(F)c1F [I/29] | > 10 | > 10 | 0.66 | – | – | – | – | –
22 | 7-Benzyl-4-(4-(4-ferrocenyl-1H-1,2,3-triazol-1-yl)benzyl)-2,4,6,7,8,9-hexahydroimidazo[1,2-a]pyrido[3,4-e]pyrimidin-5(1H)-one [I/121] | – | – | – | – | – | 2.5 | > 0.1 | > 0.1
23 | Nc1ccc(CN2CCC3=C(C2)C(=O)N(Cc2ccc(C(F)(F)F)cc2)C2=NCCN23)cc1 [I/81] | – | – | 21 | > 0.1 | > 0.1 | – | – | –
24 | COc1cc(CN2C(=O)C3=C(CCN(Cc4ccc(N)cc4)C3)N3CCN=C23)cc(OC)c1OC [I/89] | – | – | 25 | > 0.1 | > 0.1 | – | – | –
25 | O=C1C2=C(CCN(Cc3ccccc3)C2)N2CCN=C2N1Cc1ccc([N+](=O)[O-])cc1F [I/48] | 25 | 0.5 | 6.16 | > 0.1 | > 0.1 | – | – | –
